Where a SMILES comes first, the peptide text is derived from it.
What was measured:
β-catenin = target: T1, β-catenin (Homo sapiens, UniProt P35222); experiment: KD50 measurement using competitive fluorescence polarization (FP) with labelled TCF4; format: binding; settings: fluorescence polarization, β-catenin; read-out: β-Cat FP KD
T1 sequence (P35222 1-781): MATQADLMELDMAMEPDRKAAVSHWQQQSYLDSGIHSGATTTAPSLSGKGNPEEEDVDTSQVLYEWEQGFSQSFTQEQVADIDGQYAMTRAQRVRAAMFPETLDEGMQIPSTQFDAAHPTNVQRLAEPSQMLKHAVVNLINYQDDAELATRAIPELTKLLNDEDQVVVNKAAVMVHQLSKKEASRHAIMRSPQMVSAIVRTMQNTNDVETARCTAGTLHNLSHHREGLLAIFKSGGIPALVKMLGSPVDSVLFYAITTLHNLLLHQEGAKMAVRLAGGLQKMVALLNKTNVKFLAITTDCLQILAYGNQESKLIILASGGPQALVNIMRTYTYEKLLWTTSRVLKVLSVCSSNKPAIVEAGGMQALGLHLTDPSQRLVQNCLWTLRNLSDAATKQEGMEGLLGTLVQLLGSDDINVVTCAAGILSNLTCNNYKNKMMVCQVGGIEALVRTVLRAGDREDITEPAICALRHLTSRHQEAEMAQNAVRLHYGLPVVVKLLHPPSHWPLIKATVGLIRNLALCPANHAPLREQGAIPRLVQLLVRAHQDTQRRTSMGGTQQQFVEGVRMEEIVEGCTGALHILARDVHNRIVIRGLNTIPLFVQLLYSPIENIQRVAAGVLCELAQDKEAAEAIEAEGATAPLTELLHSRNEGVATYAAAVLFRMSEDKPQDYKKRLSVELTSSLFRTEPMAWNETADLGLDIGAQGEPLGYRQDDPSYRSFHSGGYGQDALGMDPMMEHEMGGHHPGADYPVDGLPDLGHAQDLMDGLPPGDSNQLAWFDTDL
How it was run: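 First, β-catenin at 100 nM is mixed with 5 nM labelled TCF4 at room temperature. Next, compound is added across serial dilutions (10 nM to 30 uM). Finally, fluorescence polarization is measured (ex 470 nm, em 520 nm); experiments are done three times.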

[1] = target: Wnt-responsive promoter (TCF/LEF); experiment: Wnt-dependent luciferase reporter assay; format: cell-based, murine
How it was run: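 Murine 3T3 fibroblasts carrying a TCF/LEF-driven luciferase reporter, stimulated with Wnt3a in the presence of increasing peptide concentrations or vehicle. Luminescence inhibition gave EC50 values in uM.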

[2] = % Viability non-Wnt responsive cells

Row | Kd (β-catenin) | EC50 [1] | Structure (SMILES) | viability [2]
1 | > 30 µM | > 30 µM | CC[C@H](C)[C@H](NC(=O)[C@H](CC(C)C)NC(=O)[C@H](Cc1ccccc1)NC(=O)[C@H](Cc1c[nH]c2ccccc12)NC(=O)[C@H](Cc1ccccc1)NC(=O)[C@H](CCCNC(=N)N)NC(=O)[C@H](CO)NC(=O)[C@@H](N)CCSC)C(=O)N[C@@H](CO)C(=O)N[C@@H](Cc1ccccc1)C(=O)N[C@@H](Cc1c[nH]c2ccccc12)C(N)=O [compound 77] (H-MSRFWFLISFW-NH2) | 107%
2 | > 30 µM | > 30 µM | CC[C@H](C)[C@H](NC(=O)[C@H](CC(C)C)NC(=O)[C@H](Cc1ccccc1)NC(=O)[C@H](Cc1c[nH]c2ccccc12)NC(=O)[C@H](Cc1c[nH]c2ccccc12)NC(=O)[C@H](CCCNC(=N)N)NC(=O)[C@H](CO)NC(=O)[C@@H](N)CCSC)C(=O)N[C@@H](CO)C(=O)N[C@@H](Cc1ccccc1)C(=O)N[C@@H](Cc1c[nH]c2ccccc12)C(N)=O [compound 78] (H-MSRWWFLISFW-NH2) | 101%
3 | > 30 µM | > 30 µM | CC[C@H](C)[C@H](NC(=O)[C@H](CC(C)C)NC(=O)[C@H](Cc1ccccc1)NC(=O)[C@H](Cc1c[nH]c2ccccc12)NC(=O)[C@H](CCSC)NC(=O)[C@H](CCCNC(=N)N)NC(=O)[C@H](CO)NC(=O)[C@@H](N)Cc1c[nH]c2ccccc12)C(=O)N[C@@H](CO)C(=O)N[C@@H](Cc1ccccc1)C(=O)N[C@@H](Cc1c[nH]c2ccccc12)C(N)=O [compound 79] (H-WSRMWFLISFW-NH2) | 98.8%
4 | > 30 µM | > 30 µM | CC[C@H](C)[C@H](NC(=O)[C@H](CC(C)C)NC(=O)[C@H](Cc1c[nH]c2ccccc12)NC(=O)[C@H](Cc1c[nH]c2ccccc12)NC(=O)[C@H](CCSC)NC(=O)[C@H](CCCNC(=N)N)NC(=O)[C@H](CO)NC(=O)[C@@H](N)CCSC)C(=O)N[C@@H](CO)C(=O)N[C@@H](Cc1ccccc1)C(=O)N[C@@H](Cc1c[nH]c2ccccc12)C(N)=O [compound 80] (H-MSRMWWLISFW-NH2) | 101%
5 | > 30 µM | > 30 µM | CC[C@H](C)[C@H](NC(=O)[C@H](CC(C)C)NC(=O)[C@H](Cc1ccccc1)NC(=O)[C@H](Cc1c[nH]c2ccccc12)NC(=O)[C@H](CCSC)NC(=O)[C@H](CCCNC(=N)N)NC(=O)[C@H](CO)NC(=O)[C@@H](N)Cc1ccccc1)C(=O)N[C@@H](CO)C(=O)N[C@@H](Cc1ccccc1)C(=O)N[C@@H](Cc1c[nH]c2ccccc12)C(N)=O [compound 81] (H-FSRMWFLISFW-NH2) | 90.7%
6 | > 30 µM | > 30 µM | CC[C@H](C)[C@H](NC(=O)[C@H](CC(C)C)NC(=O)[C@H](Cc1ccccc1)NC(=O)[C@H](Cc1c[nH]c2ccccc12)NC(=O)[C@H](CCSC)NC(=O)[C@H](CCCNC(=N)N)NC(=O)[C@H](CO)NC(=O)[C@@H](N)Cc1ccc(O)cc1)C(=O)N[C@@H](CO)C(=O)N[C@@H](Cc1ccccc1)C(=O)N[C@@H](Cc1c[nH]c2ccccc12)C(N)=O [compound 82] (H-YSRMWFLISFW-NH2) | 84%
7 | > 30 µM | > 30 µM | CC[C@H](C)[C@H](NC(=O)[C@H](CC(C)C)NC(=O)[C@H](Cc1ccccc1)NC(=O)[C@H](Cc1c[nH]c2ccccc12)NC(=O)[C@H](CCSC)NC(=O)[C@H](CCCNC(=N)N)NC(=O)[C@H](CO)NC(=O)[C@@H](N)CCCCN)C(=O)N[C@@H](CO)C(=O)N[C@@H](Cc1ccccc1)C(=O)N[C@@H](Cc1c[nH]c2ccccc12)C(N)=O [compound 83] (H-KSRMWFLISFW-NH2) | 90.9%
8 | > 30 µM | > 30 µM | CC[C@H](C)[C@H](NC(=O)[C@H](CC(C)C)NC(=O)[C@H](Cc1ccccc1)NC(=O)[C@H](Cc1c[nH]c2ccccc12)NC(=O)[C@H](CCSC)NC(=O)[C@H](CCCNC(=N)N)NC(=O)[C@H](CO)NC(=O)[C@@H](N)CCCNC(=N)N)C(=O)N[C@@H](CO)C(=O)N[C@@H](Cc1ccccc1)C(=O)N[C@@H](Cc1c[nH]c2ccccc12)C(N)=O [compound 84] (H-RSRMWFLISFW-NH2) | 88.6%

Reference: patent publication US12441768B2, “Compositions and methods for treating endometriosis” (EndoMet Biosciences, Inc., priority 2018, dated 2025)
